Laboratory results reported in patent US9101577B2, “Analgesic pharmaceutical composition for oral administration” (Warszawski Uniwersytet Medyczny, priority 2011, dated 2015).

What was measured:
Male Wistar rats [1] = assay: Prolonged activity on repeated daily p.o. administration (7 or 10 days), paw withdrawal test (Randall and Selitto); type: in vivo, rat; conditions: for analgesic activity on separate administration, 7 days (codeine study): codeine 175 mg/kg; for pain threshold on separate administration, 7 days (dihydrocodeine study): dihydrocodeine 50 mg/kg; for analgesic activity on separate administration, 7 days (oxycodone study): oxycodone 5 mg/kg; for pain threshold on separate administration, 10 days (tramadol study): tramadol 125 mg/kg
Description: (§1) Male Wistar rats (250-300 g) were housed in a room maintained at a temperature of 20±2° C. under 12 h-12 h light-dark cycles. The animals had free access to food and water. Experimental groups consisted of six rats.
(§2) Drugs • Morphine at a dose of 15 mg/kg, codeine at a dose of 175 mg/kg, tramadol at a dose of 125 mg/kg and oxycodone at a dose of 5 mg/kg were dissolved in distilled water; • Dihydrocodeine at a dose of 50 mg/kg was suspended in 1% solution of methylcellulose; • Magnesium lactate (in micronized form)—at a dose of 15 mg magnesium ions/kg (150 mg of magnesium lactate/kg) was suspended in 0.5% solution of methylcellulose; • Magnesium lactate in normal (non-micronized) form—at doses of 15 or 30 mg magnesium ions/kg (150 or 300 mg of magnesium lactate/kg, respectively) was suspended in 0.5% solution of methylcellulose; • Magnesium citrate (in micronized and normal form)—at a dose of 15 mg magnesium ions/kg (112 mg of magnesium citrate/kg) was dissolved in distilled water; • Magnesium hydroaspartate (in micronized and normal form)—at a dose of 15 mg magnesium ions/kg (216 mg of magnesium hydroaspartate/kg) was suspended in 0.5% solution of methylcellulose; • Magnesium chloride (in micronized and normal form)—at a dose of 15 mg magnesium ions/kg (59.5 mg of magnesium chloride/kg) was dissolved in distilled water; • Control animals received a 0.5% solution of methylcellulose, a 1% solution of methylcellulose and distilled water, respectively, according to the same time schedule.
Prolonged activity of the investigated drugs was measured the following day after initial administration, but before the next administration as well as after cessation of administration. Drugs were administered for seven consecutive days (administration of morphine, codeine, dihydrocodeine, oxycodone) or for ten days (administration of tramadol).
(§3) All drugs were administered per os (p.o.); literally—orally. However, in practice, drugs were administered intragastric via a gastric tube.
(§4) Changes in pain thresholds were determined using a mechanical stimuli—the modification of the classic paw withdrawal test described by Randall and Selitto [1957]. In order to produce mechanical stimulation, progressively increasing pressure was applied to the dorsal surface of the rat's paw using an analgesymeter. The instrument used increased the force on the paw at a rate of 32 grams per second. The nociceptive threshold was defined as force in grams, at which the rat attempted to withdraw its right hindpaw and values of pressure were recorded at this very moment. At least two observers controlled the response.
(§5) Nociceptive thresholds (average of two trials) measured for each animal before single administration of investigated drugs (measurement of acute activity) or in day 0 before the first administration (measurement of prolonged activity) constituted the baseline pain threshold—A. Next, measurements of the withdrawal threshold to mechanical stimuli were performed at 5, 15, 30, 60, 90, 120, 180, 240, 300 min after drug administration (measurements of acute activity) or every day before drug administration (measurements of prolonged activity)—B.
(§6) In all experimental sessions (i.e. every day, each drug investigated) values of thresholds obtained (B) were compared to baseline (A).
(§7) Changes in pain threshold were calculated as a percent of baseline value according to the following formula:
(§8) [formula] • C—% of analgesia; A—pressure (in g), baseline pain threshold; B—pressure (in g) in consecutive measurements.
(§9) Percents of analgesia values calculated as above for individual animals were subsequently used to calculate average values in particular experimental groups and for statistical analysis.
The results are expressed as mean values±standard […] of the mean (±S.E.M.). The statistical significance of differences between groups was evaluated by Student's t-test. p≦0.05 was accepted as statistically significant.

Male Wistar rats [2] = assay: Acute activity after single p.o. administration, paw withdrawal test (Randall and Selitto), % of analgesia; type: in vivo, rat; conditions: for analgesic activity on separate administration (codeine study): codeine 175 mg/kg; for analgesic activity / pain perception threshold on separate administration (dihydrocodeine study): dihydrocodeine 50 mg/kg; for analgesic activity on separate administration (oxycodone study): oxycodone 5 mg/kg; for analgesic activity on separate administration (tramadol study): tramadol 125 mg/kg
Description: as §1, §2
Magnesium salts and investigated opioids were administered concomitantly.
The micronized form of magnesium salts used in experiments contains particles of magnesium compounds of size D90<50 μm.
The normal magnesium salts form used in experiments contains particles of sizes commonly available in the market.
Acute activity of investigated drugs was measured in short time periods (from 5 to 300 min) after single administration.
as §3, §4, §5, §6, §7, §8, §9
The results are expressed as mean values±standard deviation of the mean (±S.E.M.).

[3] = 30 mg magnesium ions/kg p.o. with codeine 175 mg/kg p.o., 7 days
[4] = 30 mg magnesium ions/kg p.o. with morphine 15 mg/kg p.o., 7 days
[5] = separate administration p.o., magnesium lactate micronized 15 or normal 30 mg magnesium ions/kg
[6] = single administration, 15 mg magnesium ions/kg p.o. with dihydrocodeine 50 mg/kg p.o.
[7] = single administration, 15 mg magnesium ions/kg p.o. with morphine 15 mg/kg p.o.
[8] = single administration, 15 mg magnesium ions/kg p.o. with oxycodone 5 mg/kg p.o.
[9] = single administration, 15 mg magnesium ions/kg p.o. with tramadol 125 mg/kg p.o.
[10] = single separate administration p.o., magnesium salts 15 mg magnesium ions/kg

Structure (SMILES): CC(O)C(=O)[O-].CC(O)C(=O)[O-].[Mg+2] (centres unmarked) [normal magnesium lactate, Magnesium lactate]
- activity on codeine analgesia compared to micronized form (Male Wistar rats [1]; [3]): significantly weaker
- days on which activity on codeine analgesia appeared (Male Wistar rats [1]; [3]): only appeared on days 6 and 7
- activity on dihydrocodeine analgesia compared to micronized form (Male Wistar rats [1]; 30 mg magnesium ions/kg p.o. with dihydrocodeine 50 mg/kg p.o., 7 days): significantly weaker in comparison to the micronized form
- activity on morphine analgesia compared to micronized form (Male Wistar rats [1]; [4]): much weaker
- days on which activity on morphine analgesia appeared (Male Wistar rats [1]; [4]): only on days 6 and 7
- analgesic activity on separate administration, 7 days (codeine study) (Male Wistar rats [1]; [5]): did not exhibit analgesic activity
- pain threshold on separate administration, 7 days (dihydrocodeine study) (Male Wistar rats [1]; [5]): did not alter the pain threshold
- pain threshold on separate administration, 7 days (morphine study) (Male Wistar rats [1]; separate administration p.o., morphine 15 mg/kg, magnesium lactate micronized 15 or normal 30 mg magnesium ions/kg): did not alter the pain threshold
- analgesic activity on separate administration, 7 days (oxycodone study) (Male Wistar rats [1]; [5]): did not exhibit analgesic activity
- pain threshold on separate administration, 10 days (tramadol study) (Male Wistar rats [1]; [5]): did not alter the pain threshold
- effect on analgesic activity of codeine (Male Wistar rats [2]; single administration, 15 mg magnesium ions/kg p.o. with codeine 175 mg/kg p.o.): significantly enhanced the analgesic activity of codeine
- activity on dihydrocodeine analgesia in comparison (to micronized form / to magnesium lactate) (Male Wistar rats [2]; [6]): somewhat weaker
- effect on dihydrocodeine analgesia (Male Wistar rats [2]; [6]): significantly enhanced dihydrocodeine analgesia
- time course of activity on dihydrocodeine analgesia (Male Wistar rats [2]; [6]): gradually increased and reached a maximum between min 45 and 90 of the measurements and then became weaker by min 210
- effect on morphine analgesia (Male Wistar rats [2]; [7]): significantly enhanced morphine analgesia
- enhancement of morphine analgesia lasted up to (Male Wistar rats [2]; [7]): 180 min
- time at which enhancement of morphine analgesia appeared (Male Wistar rats [2]; [7]): 60 min
- effect on oxycodone analgesia (Male Wistar rats [2]; [8]): significantly enhanced oxycodone analgesia
- time at which activity on oxycodone analgesia appeared (Male Wistar rats [2]; [8]): 5 min
- time course of activity on oxycodone analgesia (Male Wistar rats [2]; [8]): weakened by min 15 and 30 and was maintained up to min 45
- activity on tramadol analgesia in comparison (to micronized form / to magnesium chloride) (Male Wistar rats [2]; [9]): weaker than the micronized form
- effect on antinociceptive activity of tramadol (Male Wistar rats [2]; [9]): increased antynociceptive activity of tramadol
- analgesic activity on separate administration (codeine study) (Male Wistar rats [2]; [10]): did not exhibit analgesic activity
- analgesic activity / pain perception threshold on separate administration (dihydrocodeine study) (Male Wistar rats [2]; [10]): did not exhibit analgesic activity
- analgesic activity / pain threshold when administered alone (morphine study) (Male Wistar rats [2]; single separate administration p.o., morphine 15 mg/kg, magnesium salts 15 mg magnesium ions/kg): Neither morphine nor magnesium lactate and chloride in micronized or normal form administered alone showed analgesic activity
- analgesic activity on separate administration (oxycodone study) (Male Wistar rats [2]; [10]): showed no analgesic activity
- analgesic activity on separate administration (tramadol study) (Male Wistar rats [2]; [10]): did not exhibit analgesic activity

Structure (SMILES): COc1ccc2c3c1O[C@H]1[C@@H](O)CC[C@H]4[C@@H](C2)N(C)CC[C@@]341 [dihydrocodeine, reference compound]
- pain threshold on separate administration, 7 days (dihydrocodeine study) (Male Wistar rats [1]; [5]): insignificantly raised the nociceptive stimulus threshold on days 6 and 7
- analgesic activity / pain perception threshold on separate administration (dihydrocodeine study) (Male Wistar rats [2]; [10]): only insignificantly raised the pain perception threshold (90-120 min)

Structure (SMILES): COc1ccc2c3c1O[C@H]1C(=O)CC[C@@]4(O)[C@@H](C2)N(C)CC[C@]314 [oxycodone, reference compound]
- analgesic activity on separate administration, 7 days (oxycodone study) (Male Wistar rats [1]; [5]): did not exhibit analgesic activity
- analgesic activity on separate administration (oxycodone study) (Male Wistar rats [2]; [10]): showed no analgesic activity

Structure (SMILES): COc1cccc(C2(O)CCCCC2CN(C)C)c1 (centres unmarked) [tramadol, reference compound]
- pain threshold on separate administration, 10 days (tramadol study) (Male Wistar rats [1]; [5]): insignificantly intensified the threshold for mechanical nociceptive stimuli from days 6 to 10
- analgesic activity on separate administration (tramadol study) (Male Wistar rats [2]; [10]): did not exhibit analgesic activity

Structure (SMILES): COc1ccc2c3c1O[C@H]1[C@@H](O)C=C[C@H]4[C@@H](C2)N(C)CC[C@@]341 [codeine, reference compound]
- analgesic activity on separate administration, 7 days (codeine study) (Male Wistar rats [1]; [5]): did not exhibit analgesic activity
- analgesic activity on separate administration (codeine study) (Male Wistar rats [2]; [10]): did not exhibit analgesic activity
